Test results taken from ChEMBL document CHEMBL1143459, “High affinity ligands for the alpha7 nicotinic receptor that show no cross-reactivity with the 5-HT3 receptor” (Bioorg Med Chem Lett, 2005).

How the values were obtained:
[1] = target: Serotonin 3 (5-HT3) receptor; assay: Binding affinity for human 5-hydroxytryptamine 3 serotonin membrane receptor using [3H]GR-65630
[2] = target: Neuronal acetylcholine receptor subunit alpha-7 (Homo sapiens, UniProt P36544); assay: Binding affinity towards human nicotinic acetylcholine receptor alpha 7 expressed in GH4C1 cell using [3H]methyllycaconitine; type: cell-based, GH4-C1
Neuronal acetylcholine receptor subunit alpha-7, sequence (P36544 whole entry): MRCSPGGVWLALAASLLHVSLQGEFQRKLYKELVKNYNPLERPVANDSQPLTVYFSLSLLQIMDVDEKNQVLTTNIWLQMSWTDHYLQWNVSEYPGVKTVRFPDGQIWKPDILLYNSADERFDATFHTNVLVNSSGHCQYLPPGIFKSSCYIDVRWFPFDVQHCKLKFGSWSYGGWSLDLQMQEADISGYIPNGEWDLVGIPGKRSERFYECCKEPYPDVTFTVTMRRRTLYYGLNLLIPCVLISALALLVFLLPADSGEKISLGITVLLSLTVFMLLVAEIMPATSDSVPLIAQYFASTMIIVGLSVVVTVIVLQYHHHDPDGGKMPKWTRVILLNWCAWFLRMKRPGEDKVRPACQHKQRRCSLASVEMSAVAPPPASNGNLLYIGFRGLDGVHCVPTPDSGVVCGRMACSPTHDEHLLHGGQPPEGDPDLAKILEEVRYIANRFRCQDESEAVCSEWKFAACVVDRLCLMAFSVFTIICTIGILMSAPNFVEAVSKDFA

[3] = target: Serotonin 3 (5-HT3) receptor; assay: Binding affinity towards human 5-hydroxytryptamine 3 serotonin membrane receptor using [3H]GR-65630 at 10 uM

`O=C(N[C@H]1CN2CCC1CC2)c1ccc(-c2ccccc2)s1` (racemic) showed a Ki [1] of 2020 nM and a Ki [2] of 3.4 nM.
`CCN1C[C@]2(COC(=O)c3ccccc3N3C(=O)C[C@H](C)C3=O)CC[C@H](OC)[C@@]34[C@@H]5C[C@H]6[C@H](OC)[C@@H]5[C@](O)(C[C@@H]6OC)[C@](O)([C@@H](OC)[C@H]23)[C@@H]14` [METHYLLYCACONITINE] was tested, and the inhibition [3] was 16.5% and the Ki [2] was 7.3 nM.
Work on `O=C(N[C@H]1CN2CCC1CC2)c1ccc(-c2ccccn2)s1` yielded an inhibition [3] of 15.5% and a Ki [2] of 1.3 nM.
Work on `O=C(NC1CN2CCC1CC2)c1ccc(-c2ccccc2)s1` (stereo not given) yielded a Ki [1] of 2020 nM and a Ki [2] of 3.4 nM.
In the case of `O=C(NC1CN2CCC1CC2)c1cc(-c2ccccc2)sn1` (stereo not given), the inhibition [3] is reported as 28% and the Ki [2] is reported as 4.1 nM.
Work on `O=C(NC1CN2CCC1CC2)c1ccc(-c2cccs2)s1` (stereo not given) yielded a Ki [1] of 1040 nM and a Ki [2] of 1.1 nM.
Compound `COc1ccccc1-c1ccc(C(=O)NC2CN3CCC2CC3)s1` (stereo not given) has an inhibition [3] of 27% and a Ki [2] of 268 nM.
`O=C(NC1CN2CCC1CC2)c1ccc(-c2ccccc2Cl)s1` (stereo not given) was tested, and the inhibition [3] was 45% and the Ki [2] was 525 nM.
Compound `O=C1NC[C@]2(CN3CCC2CC3)O1` has an inhibition [3] of 2.5%.
For `c1cncc(CNc2cnc3c(c2)C[C@@]2(CN4CCC2CC4)O3)c1`, the Ki [1] was 2220 nM.
For `O=C(NC1CN2CCC1CC2)c1csc(-c2ccccc2)n1` (stereo not given), the Ki [1] was 665 nM and the Ki [2] was 121 nM.
Work on `CC(=O)O.O=C(N[C@H]1CN2CCC1CC2)c1ccc(-c2ccccc2)s1` yielded an inhibition [3] of 24% and a Ki [2] of 1.8 nM.
In the case of `O=C(NC1CN2CCC1CC2)c1csc(-c2ccccc2)c1` (stereo not given), the Ki [1] is reported as 409 nM and the Ki [2] is reported as 16.7 nM.
In the case of `O=C(N[C@@H]1CN2CCC1CC2)c1ccc(-c2ccccc2)s1`, the Ki [1] is reported as 1550 nM and the Ki [2] is reported as 26.9 nM.
Compound `c1ccc(-c2cnc3c(c2)C[C@@]2(CN4CCC2CC4)O3)cc1` has a Ki [1] of 73 nM and a Ki [2] of 3.1 nM.
With `O=C(NC1CN2CCC1CC2)c1ccc(-c2ccccn2)s1` (stereo not given) the inhibition [3] was 28% and the Ki [2] was 6.9 nM.
